Numbered stars: 1 amine (or outer) side, 2 acyl side, 3 side chain; on linkers, the order of the positions; unused ones are H or OH. Square brackets hold non-standard residues; d marks the D form. Side chains are listed from the residue outwards. Peptide text beside a SMILES is read from it. * marks the point of attachment. C20 diacid = O=C(O)CCCCCCCCCCCCCCCCCCC(=O)*; γGlu = O=C(O)[C@H](CCC(=O)[*:2])N[*:1]; Desaminohistidyl = O=C(CCc1c[nH]cn1)*; Desaminotyrosyl = O=C(CCc1ccc(O)cc1)*; αMeF = C[C@](N)(Cc1ccccc1)C(=O)O; αMeL = CC(C)C[C@](C)(N)C(=O)O; AEEA = NCCOCCOCC(=O)O; Aib = CC(C)(N)C(=O)O
How the values were obtained:
[1] = molecular target: T1, gastric inhibitory peptide receptor (GIPR) (Homo sapiens, UniProt P48546); assay: cAMP pharmacological functional assay in presence of casein, hGIPR; format: cell-based; settings: HEK293 cells expressing hGIPR, 0.1% Casein, geometric mean; read-out: hGIPR cAMP Rel EC50 nM (SEM, n)
T1 sequence (P48546 22-466): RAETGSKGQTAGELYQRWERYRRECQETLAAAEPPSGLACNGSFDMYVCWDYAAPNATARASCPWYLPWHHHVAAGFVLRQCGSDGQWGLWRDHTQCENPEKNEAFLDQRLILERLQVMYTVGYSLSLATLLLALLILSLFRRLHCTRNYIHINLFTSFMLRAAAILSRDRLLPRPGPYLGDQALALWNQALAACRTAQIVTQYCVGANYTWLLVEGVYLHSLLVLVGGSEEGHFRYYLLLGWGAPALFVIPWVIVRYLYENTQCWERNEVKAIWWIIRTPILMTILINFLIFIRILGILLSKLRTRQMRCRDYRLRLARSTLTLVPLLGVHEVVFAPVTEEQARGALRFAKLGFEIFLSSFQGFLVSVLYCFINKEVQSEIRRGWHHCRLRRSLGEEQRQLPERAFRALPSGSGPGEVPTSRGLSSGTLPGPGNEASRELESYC

human GIP receptor = molecular target: T2, human GIP receptor (Homo sapiens, UniProt P48546); assay: [125I]-GIP binding (SPA), human GIP receptor; settings: read-out: hGIPR Ki, nM (SEM, n)
T2 construct: expressed in transfected cells; crude membranes
T2 sequence (P48546 22-466): T1 sequence (P48546 22-466)

[2] = molecular target: human GLP-1 receptor (GLP-1R) (Homo sapiens, UniProt P43220); assay: cAMP pharmacological functional assay in presence of casein, hGLP-1R; format: cell-based; settings: HEK293 cells expressing hGLP-1R, 0.1% Casein, geometric mean; read-out: hGLP1R cAMP Rel EC50 nM (SEM, n)
human GLP-1 receptor (GLP-1R), sequence (P43220 24-463): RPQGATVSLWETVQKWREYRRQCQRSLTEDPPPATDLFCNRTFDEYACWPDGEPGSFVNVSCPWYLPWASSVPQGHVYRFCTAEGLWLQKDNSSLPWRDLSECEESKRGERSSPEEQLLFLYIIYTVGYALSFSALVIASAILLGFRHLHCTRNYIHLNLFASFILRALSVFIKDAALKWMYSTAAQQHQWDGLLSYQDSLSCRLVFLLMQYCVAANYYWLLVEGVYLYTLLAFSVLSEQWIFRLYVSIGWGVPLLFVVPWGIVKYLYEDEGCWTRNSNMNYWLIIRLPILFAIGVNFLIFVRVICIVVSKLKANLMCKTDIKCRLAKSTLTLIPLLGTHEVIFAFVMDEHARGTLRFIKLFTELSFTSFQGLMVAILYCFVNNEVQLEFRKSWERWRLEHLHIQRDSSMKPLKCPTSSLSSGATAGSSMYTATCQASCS

human Gcg receptor = molecular target: T3, human Gcg receptor (Homo sapiens, UniProt P47871); assay: [125I]-Glucagon binding (SPA), human Gcg receptor; settings: read-out: hGLcgR Ki, nM (SEM, n)
T3 construct: expressed in transfected cells; crude membranes
T3 sequence (P47871 26-477): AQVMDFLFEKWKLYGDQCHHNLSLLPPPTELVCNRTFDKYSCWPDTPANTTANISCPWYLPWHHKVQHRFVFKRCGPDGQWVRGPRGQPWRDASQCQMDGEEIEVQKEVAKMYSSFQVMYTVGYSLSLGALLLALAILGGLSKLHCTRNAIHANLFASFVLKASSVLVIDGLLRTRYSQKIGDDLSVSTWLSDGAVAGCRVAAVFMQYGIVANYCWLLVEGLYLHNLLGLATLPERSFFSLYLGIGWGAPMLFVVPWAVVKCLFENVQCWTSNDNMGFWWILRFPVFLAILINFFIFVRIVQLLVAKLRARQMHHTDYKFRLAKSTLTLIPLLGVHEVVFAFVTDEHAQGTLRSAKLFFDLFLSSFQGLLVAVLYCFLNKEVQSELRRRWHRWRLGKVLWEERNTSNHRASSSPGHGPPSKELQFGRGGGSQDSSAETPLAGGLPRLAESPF
Outline: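 Crude membranes from cells expressing the receptor, prepared by hypotonic lysis in 50 mM Tris HCl pH 7.5 with protease inhibitors, homogenization and differential centrifugation, were used in a WGA-bead SPA. Binding buffer: 25 mM HEPES pH 7.4, 2.5 mM CaCl2, 1 mM MgCl2, bacitracin, Tween-20.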

human GLP-1R = human GLP-1R (Homo sapiens, UniProt P43220); assay: [125I]-GLP-1 binding (SPA), human GLP-1 receptor; design: expressed in transfected cells; crude membranes; settings: read-out: hGLP1R Ki, (nM) (SEM, n)
human GLP-1R, sequence (P43220 24-463): as the sequence (P43220 24-463) above
Outline: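 Frozen cell pellets are lysed on ice in hypotonic Tris buffer, pH 7.5, homogenized, and centrifuged to a membrane pellet resuspended at about 1 to 3 mg/mL. Binding is then measured in HEPES-based buffer at pH 7.4, and curves are fitted to give IC50 and Ki.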

Compound	EC50 [1]	Ki (human GIP receptor)	EC50 [2]	Ki (human Gcg receptor)	Ki (human GLP-1R)
CC[C@H](C)[C@H](NC(=O)[C@H](CC(C)C)NC(=O)[C@H](Cc1ccc(O)cc1)NC(=O)[C@H](CCC(=O)O)NC(=O)[C@@H](NC(=O)[C@H](Cc1ccccc1)NC(=O)[C@H](C)NC(=O)C(C)(C)NC(=O)[C@H](CCC(N)=O)NC(=O)[C@H](C)NC(=O)[C@H](CCCCNC(=O)COCCOCCNC(=O)COCCOCCNC(=O)CC[C@H](NC(=O)CCCCCCCCCCCCCCCCCCC(=O)O)C(=O)O)NC(=O)[C@H](CCCCN)NC(=O)[C@H](CC(=O)O)NC(=O)[C@H](CC(C)C)NC(=O)[C@H](CC(C)C)NC(=O)[C@@H](NC(=O)[C@H](CO)NC(=O)[C@H](Cc1ccc(O)cc1)NC(=O)[C@H](CC(=O)O)NC(=O)[C@H](CO)NC(=O)[C@@H](NC(=O)[C@H](Cc1ccccc1)NC(=O)[C@@H](NC(=O)CNC(=O)[C@H](CCC(=O)O)NC(=O)C(C)(C)NC(=O)CCc1c[nH]cn1)[C@@H](C)O)[C@@H](C)O)[C@@H](C)CC)[C@@H](C)CC)C(=O)N[C@@H](CCC(=O)O)C(=O)NCC(=O)NCC(=O)N1CCC[C@H]1C(=O)N[C@@H](CO)C(=O)N[C@@H](CO)C(=O)NCC(=O)N[C@@H](C)C(=O)N1CCC[C@H]1C(=O)N1CCC[C@H]1C(=O)N1CCC[C@H]1C(=O)N[C@@H](CO)C(N)=O [Example 106] (Desaminohistidyl-[Aib]EGTFTSDYSILLDKK([AEEA-AEEA-γGlu-C20 diacid])AQ[Aib]AFIEYLIEGGPSSGAPPPS-NH2)	6.54 nM	0.179 nM	0.0413 nM	515 nM	1.2 nM
CC[C@H](C)[C@H](NC(=O)[C@H](CC(C)C)NC(=O)[C@H](Cc1ccc(O)cc1)NC(=O)[C@H](CCC(=O)O)NC(=O)[C@@H](NC(=O)[C@H](Cc1ccccc1)NC(=O)[C@H](C)NC(=O)C(C)(C)NC(=O)[C@H](CCC(N)=O)NC(=O)[C@H](C)NC(=O)[C@H](CCCCNC(=O)COCCOCCNC(=O)COCCOCCNC(=O)CC[C@H](NC(=O)CCCCCCCCCCCCCCCCCCC(=O)O)C(=O)O)NC(=O)[C@H](CCCCN)NC(=O)[C@H](CC(=O)O)NC(=O)[C@H](CC(C)C)NC(=O)[C@H](CC(C)C)NC(=O)[C@@H](NC(=O)[C@H](CO)NC(=O)[C@H](Cc1ccc(O)cc1)NC(=O)[C@H](CC(=O)O)NC(=O)[C@H](CO)NC(=O)[C@@H](NC(=O)[C@H](Cc1ccccc1)NC(=O)[C@@H](NC(=O)CNC(=O)[C@H](CCC(=O)O)NC(=O)C(C)(C)NC(=O)CCc1ccc(O)cc1)[C@@H](C)O)[C@@H](C)O)[C@@H](C)CC)[C@@H](C)CC)C(=O)N[C@@H](CCC(=O)O)C(=O)NCC(=O)NCC(=O)N1CCC[C@H]1C(=O)N[C@@H](CO)C(=O)N[C@@H](CO)C(=O)NCC(=O)N[C@@H](C)C(=O)N1CCC[C@H]1C(=O)N1CCC[C@H]1C(=O)N1CCC[C@H]1C(=O)N[C@@H](CO)C(N)=O [Example 107] (Desaminotyrosyl-[Aib]EGTFTSDYSILLDKK([AEEA-AEEA-γGlu-C20 diacid])AQ[Aib]AFIEYLIEGGPSSGAPPPS-NH2)	0.241 nM	0.0425 nM	0.0539 nM	303 nM	0.867 nM
CC[C@H](C)[C@H](NC(=O)[C@H](CC(C)C)NC(=O)[C@H](Cc1ccc(O)cc1)NC(=O)[C@H](CCC(=O)O)NC(=O)[C@@H](NC(=O)[C@H](Cc1ccccc1)NC(=O)[C@H](C)NC(=O)C(C)(C)NC(=O)[C@H](CCC(N)=O)NC(=O)[C@H](C)NC(=O)[C@H](CCCCNC(=O)CCCCCCCNC(=O)COCCOCCNC(=O)CC[C@H](NC(=O)CCCCCCCCCCCCCCCCCCC(=O)O)C(=O)O)NC(=O)[C@H](CCCCN)NC(=O)[C@H](CC(=O)O)NC(=O)[C@H](CC(C)C)NC(=O)[C@H](CC(C)C)NC(=O)[C@@H](NC(=O)[C@H](CO)NC(=O)[C@H](Cc1ccc(O)cc1)NC(=O)[C@H](CC(=O)O)NC(=O)[C@H](CO)NC(=O)[C@@H](NC(=O)[C@H](Cc1ccccc1)NC(=O)[C@@H](NC(=O)CNC(=O)[C@H](CCC(=O)O)NC(=O)C(C)(C)NC(=O)[C@@H](N)Cc1ccc(O)cc1)[C@@H](C)O)[C@@H](C)O)[C@@H](C)CC)[C@@H](C)CC)C(=O)N[C@@H](CCC(=O)O)C(=O)NCC(=O)NCC(=O)N1CCC[C@H]1C(=O)N[C@@H](CO)C(=O)N[C@@H](CO)C(=O)NCC(=O)N[C@@H](C)C(=O)N1CCC[C@H]1C(=O)N1CCC[C@H]1C(=O)N1CCC[C@H]1C(=O)N[C@@H](CO)C(N)=O [Example 109]	0.109 nM	0.0279 nM	0.35 nM	43.1 nM	1.34 nM
CC[C@H](C)[C@H](NC(=O)[C@H](CC(C)C)NC(=O)[C@H](Cc1ccc(O)cc1)NC(=O)[C@H](CCC(=O)O)NC(=O)[C@@H](NC(=O)[C@H](Cc1ccccc1)NC(=O)[C@H](C)NC(=O)C(C)(C)NC(=O)[C@H](CCC(N)=O)NC(=O)[C@H](C)NC(=O)[C@H](CCCCNC(=O)COCCOCCNC(=O)CC[C@H](NC(=O)[C@H]1CC[C@H](CNC(=O)CCCCCCCCCCCCCCCCCCC(=O)O)CC1)C(=O)O)NC(=O)[C@H](CCCCN)NC(=O)[C@H](CC(=O)O)NC(=O)[C@H](CC(C)C)NC(=O)[C@H](CC(C)C)NC(=O)[C@@H](NC(=O)[C@H](CO)NC(=O)[C@H](Cc1ccc(O)cc1)NC(=O)[C@H](CC(=O)O)NC(=O)[C@H](CO)NC(=O)[C@@H](NC(=O)[C@H](Cc1ccccc1)NC(=O)[C@@H](NC(=O)CNC(=O)[C@H](CCC(=O)O)NC(=O)C(C)(C)NC(=O)[C@@H](N)Cc1ccc(O)cc1)[C@@H](C)O)[C@@H](C)O)[C@@H](C)CC)[C@@H](C)CC)C(=O)N[C@@H](CCC(=O)O)C(=O)NCC(=O)NCC(=O)N1CCC[C@H]1C(=O)N[C@@H](CO)C(=O)N[C@@H](CO)C(=O)NCC(=O)N[C@@H](C)C(=O)N1CCC[C@H]1C(=O)N1CCC[C@H]1C(=O)N1CCC[C@H]1C(=O)N[C@@H](CO)C(N)=O [Example 110]	0.218 nM	0.0395 nM	0.179 nM	73.9 nM	4.38 nM
CC[C@H](C)[C@H](NC(=O)[C@H](CC(C)C)NC(=O)[C@H](Cc1ccc(O)cc1)NC(=O)[C@H](CCC(=O)O)NC(=O)[C@@H](NC(=O)[C@H](Cc1ccccc1)NC(=O)[C@H](C)NC(=O)C(C)(C)NC(=O)[C@H](CCC(N)=O)NC(=O)[C@H](C)NC(=O)[C@H](CCCCNC(=O)COCCOCCNC(=O)COCCOCCNC(=O)CC[C@H](NC(=O)CCCCCCCCCCCCCCCCCCC(=O)O)C(=O)O)NC(=O)[C@H](CCC(=O)O)NC(=O)[C@H](CC(=O)O)NC(=O)[C@H](CC(C)C)NC(=O)[C@](C)(CC(C)C)NC(=O)[C@@H](NC(=O)[C@H](CO)NC(=O)[C@H](Cc1ccc(O)cc1)NC(=O)[C@H](CC(=O)O)NC(=O)[C@H](CO)NC(=O)[C@@H](NC(=O)[C@](C)(Cc1ccccc1)NC(=O)[C@@H](NC(=O)CNC(=O)[C@H](CCC(=O)O)NC(=O)C(C)(C)NC(=O)[C@@H](N)Cc1ccc(O)cc1)[C@@H](C)O)[C@@H](C)O)[C@@H](C)CC)[C@@H](C)CC)C(=O)N[C@@H](CCC(=O)O)C(=O)NCC(=O)NCC(=O)N1CCC[C@H]1C(=O)N[C@@H](CO)C(=O)N[C@@H](CO)C(=O)NCC(=O)N[C@@H](C)C(=O)N1CCC[C@H]1C(=O)N1CCC[C@H]1C(=O)N1CCC[C@H]1C(=O)N[C@@H](CO)C(N)=O [Example 115] (H-Y[Aib]EGT[αMeF]TSDYSI[αMeL]LDEK([AEEA-AEEA-γGlu-C20 diacid])AQ[Aib]AFIEYLIEGGPSSGAPPPS-NH2)	0.102 nM	0.0302 nM	0.088 nM	9.89 nM	3.43 nM

Reference: US12252524B2, “GIP/GLP1 co-agonist compounds” (Eli Lilly and Company, priority 2018, dated 2025)
